Data: patent US8962646B2, “Peripherally acting opioid compounds” (Alkermes, Inc., priority 2011, dated 2015)
pKi: −log10 of the molar value. Entries after “also recorded” stand apart in the source; their conditions may differ. Structures can show the parent of a compound that is named as a salt. Where two headings read alike, the source gives them in different places.

Columns and labels:
human μ opioid receptor [1] = biological target: T1, human μ opioid receptor (Homo sapiens (Human), UniProt P35372); format: biochemical
Method: The [^35S]GTPγS assay measures the functional properties of a compound by quantifying the level of G-protein activation following agonist binding in studies using stably transfected cells, and is considered to be a measure of the efficacy of a compound. Membranes from CHO (Chinese Hamster Ovary) cells that stably expressed the cloned human Mu opioid receptor were used in the experiments. In a final volume of 0.5 mL, 12 different concentrations of each test compound were incubated with 7.5 μg of CHO cell membranes that stably expressed the human μ opioid receptor. The assay buffer consisted of 50 mM Tris-HCl, pH 7.4, 3 mM MgCl2, 0.2 mM EGTA, 3 μM GDP, and 100 mM NaCl. The final concentration of [^35S]GTPγS was 0.080 nM. Nonspecific binding was measured by inclusion of 10 μM GTPγS. Binding was initiated by the addition of the membranes. After an incubation of 60 min at 30° C., the samples were filtered through Schleicher & Schuell No. 32 glass fiber filters. The filters were washed three times with cold 50 mM Tris-HCl, pH 7.5, and were counted in 2 mL of Ecoscint scintillation fluid.

mice = test: In vivo behavioral studies (clinical observation assay); details: 10 mg/kg SC, observed over 24 hours
Method: Groups of mice (n=5 per group; >60 days; 20-25 grams weight) were dosed with vehicle (0.9% sterile saline) or test compounds (10 mg/kg free base, SC) 30 minutes before the first observation period. The occurrence of Straub tail, piloerection, hyperlocomotion, hypolocomotion, circling of the cage, sedation, breathing abnormalities, diuresis, seizure activity and occurrences of death were recorded at 0.5, 1, 2, 4, 6 and 24 hours following dosing.
This is tested with our clinical observation assay where mice are injected with 10 mg/kg subcutaneously with drug and the behaviors are noted over 24 hours.

human κ opioid receptor = human κ opioid receptor (Homo sapiens (Human), UniProt P41145); details: read-out: Binding affinity κ (Ki, nm)
human δ opioid receptor = human δ opioid receptor (Homo sapiens (Human), UniProt P41143); test: Receptor binding, competitive displacement of [3H]naltrindole; details: CHO cell membranes, cloned human receptor, 0.2 nM [3H]naltrindole; for pKi: read-out: Binding affinity δ (Ki, nm); for Ki: uM, read-out: Binding affinity δ (Ki)
human μ opioid receptor [2] = biological target: T1, human μ opioid receptor; details: read-out: Binding affinity μ (Ki, nm)
formalin-induced events = test: Formalin model of pain; format: in vivo; details: rats; for ED50: Rattus norvegicus, sc, read-out: Formalin test ED50
Method: Nonfasted male Harlan rats were assigned to treatment group according to a randomized block study design to balance for test chamber and time of day, and day of test (if applicable). Each rat was administered either vehicle or test compound subcutaneously and then placed in their assigned test chamber and acclimated for 25-30 minutes with the chamber enclosure door left open. Data was not collected during this period. Following the acclimation period, each rat was removed individually starting with chamber 1, and dosed 5% formalin subcutaneously into the right rear paw plantar surface (formalin was made from a 37% stock solution, diluted down to 5% with saline).
Data collection started when the first rat was replaced in chamber 1 and the chamber door was closed and latched (skipped 1-minute acclimation screen on software). The number of events (also defined as “number of seconds”), defined as the number of 1-second bins with a change in dynamic force that exceeded an empirically determined threshold value (a value of arbitrary load units, which corresponded visually with rats quietly breathing or sniffing), were totaled in 5-minute intervals. In control rats, the number of events first increases within 5 minutes and then decreases during the subsequent 5 minutes (a quiescent phase) after formalin administration (Phase I, or Early Phase, of the formalin test), then increases again during the subsequent 35 minutes (Phase II, or Late Phase) of the formalin test. Formalin-induced movements detected by the system include licking and flinching of the affected paw as well as hopping and turning.
For constructing summaries for analysis of dose response curves or screens in the formalin test, the total number of events during the first 5 minutes after formalin administration was considered to be Phase I (Early Phase), and the total number of events for minutes 11 to 35 after formalin was considered to be Phase II (Late Phase). Data were analyzed using 1-way ANOVA, and comparisons of drug treatment groups were compared with control groups using appropriate, statistician-guided tests—most commonly Dunnett's for dose response curves and a Student's t-test for two-group (i.e. vehicle vs. positive control) comparison—utilizing JMP statistical software (SAS Institute Inc, Cary, N.C.). Data was expressed as means±SEM. An ED50 was calculated utilizing GraphPad Prism software.

[3] = tested on: CFA-induced weight bearing deficits; test: CFA induced weight bearing deficits in rats; details: for Analgesic effect with concurrent intra-plantar 75 ug naloxone methiodide: 10 μg/paw intra-plantar; for Reversal of CFA-induced weight bearing deficits: intra-plantar, 3, 10 and 30 μg/paw
Method: Animals were habituated to the weight bearing test apparatus for 2 days prior to the start of the experiment. On Day 0, rats were tested in the weight bearing apparatus to measure baseline weight bearing of untreated hind paws. Following baseline testing, animals were injected intra-plantar with Complete Freund's Adjuvant (CFA). Using a syringe with a locking hub and 25 G needle, rats were injected via rear, left intra-plantar administration with 100 μL of 100% CFA (1.0 mg/ml) while under light isofluorane anesthesia. No treatment was administered to the right, rear, contralateral paw.
Intra-plantar test-compound administration was done while the animal was under light (3%) isofluorane anesthesia using 0.3 ml insulin syringe. The amount of anesthesia given to the animal during test compound administration was limited to a very short duration, so not to impede measurement of weight bearing at the 5 minute time point. On Day 1 (24 hrs post CFA), rats were tested in the weight bearing apparatus to measure CFA-induced changes in weight bearing. […] Following test compound administration, animals were retested in the weight bearing apparatus at the following time points: 5, 15, 30, 60 and 120 minutes post-test compound administration. Animals were retested on Day 2 (post-CFA) if there is a significant change in CFA induced weight bearing at the 120 minute time point on Day 1.

[4] = tested on: hot plate response latency; test: Rat hot plate model of centrally mediated analgesia
Method: Rats were then tested on the hot plate 5, 30, 60, 120, 240 and 360 minutes later. The amount of time it took to lick one hind paw is measured and is considered the response latency. The mean and SEM of the responses latencies for each experimental group were calculated and a line depicting mean hot plate latency vs. time was generated using GraphPad Prism. An increase in mean response latency above baseline following test compound administration is indicative of an antinociceptive effect.

[5] = tested on: acetic acid induced writhing; test: Acetic-acid induced writhing model of inflammatory pain; format: in vivo; details: mice, intraperitoneal, 1% acetic acid
Method: The number of writhes was counted for 15 minutes (3 consecutive 5 minute time bins). […] “Normal” posture was defined as movements opposite to those listed above (e.g. convex curvature of the spine, legs not extended, abdomen not lowered, tail in a straight or relaxed position, etc).
The total number of writhes over the 15 minute test session was used for all data analysis. All data was transformed using GraphPad Prism to % change from daily vehicle control for analysis based on the number of writhes produced by the saline vehicle control group (% change=# writhes in test group/mean # of writhes in daily vehicle control group*100).

[6] = CHO cell membranes, cloned human receptor, 1 nM [3H]U69,593
[7] = [35S]GTPγS binding, CHO membranes
[8] = CHO cell membranes, cloned human receptor, […] [3H]DAMGO

Compound | Clinical Observations after 10 mg/kg subcutaneous injection (mice) | pKi (human κ opioid receptor; [6]) | pKi (human δ opioid receptor) | In vitro functional agonism for μ receptor Agonist? (human μ opioid receptor [1]; [7]) | pKi (human μ opioid receptor [2]; [8]) | other results
CN1CC[C@]23CC(=O)CC[C@@]2(O)[C@H]1Cc1ccc(C(=O)NCCc2nc4ccccc4[nH]2)c(O)c13 [Compound 1] | None | 6.07 | 6.31 | – | – | In vitro functional agonism for μ receptor Agonist? (human μ opioid receptor [1]): Yes; pKi (human μ opioid receptor [2]): 7.57
CN1CC[C@]23CC(=O)CC[C@@]2(O)[C@H]1Cc1ccc(C(=O)NCCc2ccc(-c4ccc(=O)[nH]c4)cc2)c(O)c13 [Compound 3] | None | 6.74 | 7.77 | Yes | 9.20 | –
CN1CC[C@]23c4c5ccc(O)c4O[C@H]2[C@@H](O)C=CC3C1C5 (stereo partly shown) [A, morphine, reference compound] | Multiple central nervous system like effects: Straub tail, hyperlocomotion, circling | – | – | – | – | ED50 (formalin-induced events; subcutaneous): 2.4 mg/kg; Effect on early and late phase of formalin test (formalin-induced events; 10 mg/kg): completely mitigates both the early and late phase effects of formalin; Clinical Observations after 10 mg/kg subcutaneous injection (mice; listed as morphine): severe effects that reflect mu agonism in the brain; Analgesic effect with concurrent intra-plantar 75 ug naloxone methiodide [3]: significantly inhibited; Reversal of CFA-induced weight bearing deficits [3]: dose-dependent reversal of CFA-induced weight bearing deficits; Hot plate antinociception (response latency) ([4]; SC 7.5 mg/kg, hot plate 52.5° C.): 60 s
CN1CC[C@]23CC(=O)CC[C@@]2(O)[C@H]1Cc1ccc(C(=O)NCCc2ccc(-c4cnc(=O)[nH]c4)cc2)c(O)c13 [Compound 11, 4,14-dihydroxy-17-methyl-6-oxo-N-{2-[4-(2-oxo-1,2-dihydropyrimidin-5-yl)phenyl]ethyl}morphinan-3-carboxamide maleate salt] | None | – | – | Yes | 8.80 | Ki (human δ opioid receptor): > 1 µM
C=C1CC[C@@]2(O)[C@H]3Cc4ccc(C(=O)NCCc5ccc(-c6c[nH]c(=O)[nH]c6=O)cc5)c(O)c4[C@@]2(CCN3C)C1 [Compound 6] | None | 6.00 | 7.01 | Yes | 8.46 | –
CN1CC[C@]23CC(=O)CC[C@@]2(O)[C@H]1Cc1ccc(C(=O)NCCc2ccc(-c4ccccc4)cc2)c(O)c13.Cl [B, reference compound] | Angioedema; Straub tail, hypolocomotion, mortality | 9.15 | 8.27 | – | – | In vitro functional agonism for μ receptor Agonist? (human μ opioid receptor [1]): Yes; Clinical Observations after 10 mg/kg subcutaneous injection (mice; listed as Compound-B): severe effects that reflect mu agonism in the brain; also recorded: observed mortality; pKi (human μ opioid receptor [2]): 9.41
CN1CC[C@]23CC(=O)CC[C@@]2(O)[C@H]1Cc1ccc(C(=O)NCCc2ccc(-c4cn[nH]c4)cc2)c(O)c13 [Compound 8] | None | 7.72 | 8.68 | Yes | 9.82 | –
CO[C@@]12CCC(=O)C[C@@]13CCN(C)[C@@H]2Cc1ccc(C(=O)NCCc2ccc(-c4c[nH]c(=O)[nH]c4=O)cc2)c(O)c13 [Compound 7] | None | 6.07 | 7.38 | – | – | In vitro functional agonism for μ receptor Agonist? (human μ opioid receptor [1]): Yes; pKi (human μ opioid receptor [2]): 9.28
CN1CC[C@]23CC(=O)CCC2[C@H]1Cc1ccc(C(=O)NCCc2nc4ccccc4[nH]2)c(O)c13 (stereo partly shown) [Compound 9] | None | 6.40 | 6.55 | Yes | 8.77 | –
CN1CC[C@]23CC(=O)CC[C@@]2(O)[C@H]1Cc1ccc(C(=O)NCCc2ccc(-c4cnc(O)nc4O)cc2)c(O)c13 [Compound 4] | None | – | – | Yes | 8.89 | ED50 (formalin-induced events; subcutaneous): 3.62 mg/kg; Early Phase versus Late Phase effect in formalin test (formalin-induced events; subcutaneous): more robust effect of Compound 4 in the Late Phase effects than the Early Phase; Effect on formalin-induced events (formalin-induced events; subcutaneous, dose response): dose-dependent reversal of formalin-induced events; pKi (human κ opioid receptor): 6.72; Ki (human δ opioid receptor): > 1 µM; Analgesic effect with concurrent intra-plantar 75 ug naloxone methiodide [3]: significantly inhibited; Reversal of CFA-induced weight bearing deficits [3]: dose-dependent reversal of CFA-induced weight bearing deficits; also recorded: comparable to that seen with Morphine; Hot plate efficacy at the highest dose tested ([4]; SC 100 mg/kg): sub-maximal efficacy; Hot plate activity compared with morphine ([4]; SC 10, 30 and 100 mg/kg): significantly less active than morphine; ED50 ([5]; Mus musculus, ip): 0.7 mg/kg; Effect on acetic acid induced writhing [5]: blocked acetic acid induced writhing in a dose-dependent manner
O=C1CC[C@@]2(O)[C@H]3Cc4ccc(C(=O)NCCc5ccc(-c6c[nH]c(=O)[nH]c6=O)cc5)c(O)c4[C@@]2(CCN3CCc2ccccc2)C1 [Compound 2, N-{2-[4-(2,4-Dioxo-1,2,3,4-tetrahydropyrimidin-5-yl)phenyl]ethyl}-4,14-dihydroxy-6-oxo-17-(2-phenylethyl)morphinan-3-carboxamide] | None | – | – | Yes | – | –
(4bS,9R)—N-(4-(2,4-dioxo-1,2,3,4-tetrahydropyrimidin-5-yl)phenethyl)-4-hydroxy-11-methyl-6-oxo-6,7,8,8a,9,10-hexahydro-5H-9,4b-(epiminoethano)phenanthrene-3-carboxamide [Compound 5] | None | – | 7.29 | Yes | 8.77 | pKi (human κ opioid receptor): 6.17
CN1CC[C@]23CC(=O)CC[C@@]2(O)[C@H]1Cc1ccc(C(=O)NCCc2ccc(-c4cc[nH]c(=O)c4)cc2)c(O)c13 [Compound 10, 4,14-dihydroxy-N-{2-[4-(2-hydroxypyridin-4-yl)phenyl]ethyl}-17-methyl-6-oxomorphinan-3-carboxamide] | None | – | 8.00 | Yes | 9.37 | pKi (human κ opioid receptor): 6.85
